In the NIST ThermoML archive (doi:10.1021/je060271a):

Details: 283.14 K, Liquid, Vibrating tube method

CCCCCCC(=O)OCC(COC(=O)CCCCCC)(COC(=O)CCCCCC)COC(=O)CCCCCC [pentaerythritol tetraheptanoate]
Details	mass density [kg/m3]
19935 kPa	997
19962 kPa	996.9
19984 kPa	996.9
20007 kPa	996.9
20034 kPa	997
20057 kPa	997
20081 kPa	997
20105 kPa	997
20133 kPa	997
20156 kPa	997
20179 kPa	997.1
20202 kPa	997
20230 kPa	997
20253 kPa	997.1
20282 kPa	997.1
20305 kPa	997
20328 kPa	997.1
20356 kPa	997.1
20380 kPa	997.1
20404 kPa	997.2
20428 kPa	997.2
20456 kPa	997.2
20480 kPa	997.2
20504 kPa	997.2
20533 kPa	997.2
20557 kPa	997.2
20586 kPa	997.3
20610 kPa	997.3
20634 kPa	997.3
20663 kPa	997.3
20688 kPa	997.3
20713 kPa	997.3
20742 kPa	997.2
20768 kPa	997.5
20792 kPa	997.5
20822 kPa	997.5
20846 kPa	997.4
20871 kPa	997.4
20896 kPa	997.4
20926 kPa	997.4
20951 kPa	997.4
20976 kPa	997.4
21007 kPa	997.6
21032 kPa	997.5
21062 kPa	997.5
21088 kPa	997.5
21114 kPa	997.6
21140 kPa	997.6
21171 kPa	997.6
21196 kPa	997.4
21222 kPa	997.6
21254 kPa	997.6
21279 kPa	997.6
21310 kPa	997.7
21336 kPa	997.5
21362 kPa	997.7
21393 kPa	997.6
21419 kPa	997.7
21446 kPa	997.7
21473 kPa	997.7
21505 kPa	997.7
21531 kPa	997.7
21558 kPa	997.6
21585 kPa	997.8
21617 kPa	997.6
21644 kPa	997.8
21671 kPa	997.9
21703 kPa	997.8
21730 kPa	997.9
21758 kPa	997.8
21790 kPa	997.9
21818 kPa	997.9
21846 kPa	997.9
21873 kPa	997.7
21906 kPa	998
21933 kPa	997.9
21961 kPa	998
21994 kPa	997.9
22022 kPa	997.9
22055 kPa	998
22083 kPa	998
22111 kPa	997.9
22139 kPa	998.1
22174 kPa	998.1
22199 kPa	998
22233 kPa	998.1
22261 kPa	998.2
22294 kPa	998.1
22323 kPa	998.1
22352 kPa	998.2
22381 kPa	998.2
22416 kPa	998.2
22444 kPa	998.2
22474 kPa	998.1
22509 kPa	998.2
22538 kPa	998.2
22569 kPa	998.2
22599 kPa	998.2
22628 kPa	998.3
22664 kPa	998.4
22694 kPa	998.3
22724 kPa	998.3
22760 kPa	998.4
22789 kPa	998.4
22819 kPa	998.3
22855 kPa	998.4
22886 kPa	998.5
22915 kPa	998.4
22952 kPa	998.5
22982 kPa	998.4
23012 kPa	998.5
23049 kPa	998.6
